Test results: ChEMBL document CHEMBL3301361, “Experimental in vitro DMPK and physicochemical data on a set of publicly disclosed compounds”

assay: physchem; settings: octan-1-ol/water, pH 7.4

Going from `CNC1=Nc2ncccc2C(c2ncco2)=NC1c1cccs1` (stereo not given) to `Nc1ncnc2oc(-c3ccoc3)c(-c3ccco3)c12`, the logD rises from 1.14 to 3.1.

Compared with `Cc1cc2c(C(C)C)c(O)c(O)c(C=O)c2c(O)c1-c1c(C)cc2c(C(C)C)c(O)c(O)c(C=O)c2c1O` [GOSSYPOL], `CCCNC(=O)c1nnc2c(-c3cnc(OC)nc3OC)cccc2c1N` is higher in logD: 2.75 for the first, 3.26 for the second.

First: CN1CCC(C#N)(c2cccc3ccccc23)CC1
Second: CNC(=O)c1cccc(O[C@H]2C[C@H]3CC[C@@H](C2)N3Cc2ccccc2)c1
The logD of the first is higher: 2.73 for the first, 1.93 for the second.

Compared with `CNC(=O)c1ccc(Oc2ccc(C#C[C@]3(O)CN4CCC3CC4)cc2)cc1`, `O=C1O[C@]2(CN3CCC2CC3)CN1c1cccs1` is lower in logD: 1.99 for the first, 0.9 for the second.

Going from `CCCNC(=O)c1nnc2c(-c3cnccc3OC)cccc2c1N` to `c1cncc(-c2ccc(-c3nnc(C4CN5CCC4CC5)o3)o2)c1` (stereo not given), the logD falls from 2.83 to 1.2.

same assay, conditions: octan-1-ol/water, pH 7.4, LogD7.4

Going from `COc1ccc(-c2nc3c(NCCCNC(=O)C4CC4)c(Br)cnc3[nH]2)cc1` to `COc1ccc(OC)c(-c2c(F)ccc3c(N)c(C(=O)NC4CC4)nnc23)c1`, the logD rises from 1.71 to 3.47.

Compared with `COc1ccccc1C(=O)Nc1nc2ccccc2[nH]1`, `CCCNC(=O)c1nnc2c(-c3ccccc3)cccc2c1N` is higher in logD: 2.9 for the first, 3.8 for the second.

`O=C(COCc1cscn1)N1CCN(c2ccc(Cl)cc2Cl)CC1` and `Cc1cc(Cl)ccc1N1CCN(C(=O)COCc2ccncc2)CC1` are within 0.2 log units of each other in logD: 3.07 for the first, 3.22 for the second.

`CCOC(=O)c1ccc(N)cc1` [BENZOCAINE] and `CCOC(=O)c1coc2ccccc2c1=O` are within 0.2 log units of each other in logD: 1.83 for the first, 1.81 for the second.

`Cc1oc2cc(O)ccc2c(=O)c1-c1ccccc1` and `Cc1c(-c2ccc(O)cc2)c(=O)oc2cc(O)ccc12` are within 0.2 log units of each other in logD: 2.95 for the first, 2.8 for the second.

Compared with `COc1cc2c(Nc3c(Cl)ccc4c3OCO4)ncnc2cc1OCCCN1CCCCC1`, `COc1cc(OC2CCN(C)CC2)c2c(Nc3cccc4c3OCCO4)ncnc2c1` is higher in logD: 2.05 for the first, 2.26 for the second.

`COc1cc2ncc(C(N)=O)c(Nc3cccc(Cl)c3F)c2cc1OC` and `COc1cc2ncnc(Nc3cccc(C)c3)c2cc1OC` are within 0.2 log units of each other in logD: 3.6 for the first, 3.5 for the second.

Going from `N[C@H](Cc1c[nH]c2ccccc12)C(=O)O` [D-TRYPTOPHAN] to `NC(Cc1c[nH]c2ccccc12)C(=O)O` (stereo not drawn) [DL-TRYPTOPHAN], the logD falls from -0.92 to -1.17.

Going from `CC(C)C(NC(=O)Cn1c(-c2ccc(F)cc2)ncc(NC(=O)OCc2ccncc2)c1=O)C(=O)C(F)(F)F` (stereo not given) to `CC(C)C(NC(=O)Cn1c(-c2ccccc2)ccc(NC(=O)CN2CCOCC2)c1=O)C(=O)C(F)(F)F` (stereo not given), the logD falls from 2.22 to 2.

Compared with `CN(C)S(=O)(=O)c1ccc2c(C(=O)NC[C@@H](O)CN3CCC(Oc4ccc(Cl)c(Cl)c4)CC3)c[nH]c(=O)c2c1`, `Cn1cc(S(C)(=O)=O)nc1-c1c2c(=O)n(C)c(=O)n(CC3CC3)c2nn1Cc1ccnc2ccc(Cl)cc12` is lower in logD: 3.13 for the first, 2.64 for the second.

Compared with `COC(=O)CCCCCCC(=O)Nc1ccc2c(c1)-c1ccccc1C(=O)C2=O`, `O=C1c2ccc(O)cc2C(=O)N1c1ccccc1` is lower in logD: 2.6 for the first, 2.3 for the second.

Compared with `N#Cc1ccc(-c2cc(NC(N)=O)c(C(=O)N[C@H]3CCCNC3)s2)cc1`, `C[C@@H]1CCCN1CCc1cc2cc(-c3ccc(C#N)cc3)ccc2o1` is higher in logD: 0.61 for the first, 3.51 for the second.

First: O=C1CCOc2nc(OCc3ccccc3)ccc21
Second: Cn1c(N)nc(CCc2ccccc2)cc1=O
The logD of the first is higher: 3.1 for the first, 2 for the second.

Going from `Cc1cc(Nc2ccc(F)cc2)nc(N)n1` to `Cc1ncc(-c2ccnc(Nc3ccc(C(=O)N(C)C)cc3)n2)n1C(C)C`, the logD rises from 2.08 to 2.45.

First: COc1cc(Nc2nccc(Oc3cnc4ccccc4c3)n2)cc(OC)c1OC
Second: COc1nc(Cl)cnc1NS(=O)(=O)c1cccc2c(N(C)C)cccc12
The logD of the first is higher: 3.41 for the first, 1.74 for the second.

Compared with `O=S(=O)(Nc1cccc2[nH]ncc12)c1cccs1`, `O=S(=O)(Nc1cccnc1)c1ccccc1` is lower in logD: 1.7 for the first, 0.84 for the second.

Going from `CCCSc1ncccc1C(=O)N1CCCC1c1ccncc1` (stereo not given) to `CCOc1cccc(Nc2nnc(C(=O)Nc3ccc(N4CCOCC4)nc3)o2)c1`, the logD rises from 1.95 to 3.6.

First: CCN(CC)S(=O)(=O)c1ccc(NC(=O)[C@@](C)(O)C(F)(F)F)c(Cl)c1
Second: CC[C@H](C)[C@@H](CO)NS(=O)(=O)c1ccc(Cl)s1
The logD of the first is higher: 3.66 for the first, 2.7 for the second.

Going from `CCC(c1nc2ccsc2c(=O)n1Cc1ccc(Cl)cc1)N(CCCN)C(=O)c1ccc(C)cc1` (stereo not given) to `CCC(c1nc2ccsc2c(=O)n1Cc1cscn1)N(CCCN)C(=O)c1ccc(C)cc1` (stereo not given), the logD falls from 2.32 to 0.02.

Going from `Cc1cc(C)c(C(=O)N[C@@H](Cc2ccc(OCCCNc3ccccn3)cc2)C(=O)O)c(C)c1` to `CCCC(=O)C1(c2ccccc2)CCN(C(=O)[C@@H](Cc2ccc(OC)cc2)NC(=O)[C@@H](N)Cc2cncn2C)CC1`, the logD rises from 0.49 to 2.51.

Compared with `CC(C)NCC(O)COc1nccs1` (stereo not given) [TAZOLOL], `C#CC(C)(C)NC(=O)c1sccc1Oc1ccc(F)cc1[N+](=O)[O-]` is higher in logD: -0.97 for the first, 3 for the second.

Compared with `N=C(N)Nc1ccc(C(=O)Oc2ccccc2)cc1`, `CC(=O)NC1CC(C)N(C(=O)c2ccccc2)c2ccccc21` (stereo not given) is higher in logD: -0.21 for the first, 2 for the second.

Going from `CC1=NC(C)(c2cccc(-c3cccnc3)c2)N=C1N` (stereo not given) to `O=S(=O)(Nc1cccnc1)c1ccc2c(c1)OCCO2`, the logD falls from 1.7 to 1.34.

First: O=S(=O)(Nc1nnc(-c2ccccc2)s1)c1ccc(Cl)cc1
Second: O=S(=O)(Nc1ccc2[nH]c(-c3ccc(Br)o3)nc2c1)c1ccccc1
The logD of the first is lower: 1.14 for the first, 4.38 for the second.

First: CCCCCOC(=O)Nc1nc(=O)n([C@@H]2O[C@H](C)[C@@H](O)[C@H]2O)cc1F [CAPECITABINE]
Second: CC(=O)CCCCn1c(=O)c2c(ncn2C)n(C)c1=O [PENTOXIFYLLINE]
The logD of the first is higher: 0.67 for the first, 0.22 for the second.

Compared with `CC(C)N(C(=O)C(c1cccnc1)C(CNC(=O)NCc1ccccc1F)c1ccccc1)C(C)C` (stereo not given), `CN(CCCc1ccccc1)S(=O)(=O)c1cc(C(=O)N2CCc3ccc(S(=O)(=O)NCCc4ccccc4)cc3C2)c(O)c(O)c1O` is lower in logD: 4.2 for the first, 0.75 for the second.

Going from `CC[C@H]1OC(=O)[C@H](C)[C@@H](O[C@H]2C[C@@](C)(OC)[C@@H](O)[C@H](C)O2)[C@H](C)[C@@H](O[C@@H]2O[C@H](C)C[C@H](N(C)C)[C@H]2O)[C@](C)(O)C[C@@H](C)/C(=N\OCOCCOC)[C@H](C)[C@@H](O)[C@]1(C)O` [ROXITHROMYCIN] to `CC(C)Cn1c(=O)n(C)c(=O)c2c(C(=O)N3CC(C)(O)C3)c(Cc3ccccc3C(F)(F)F)sc21`, the logD rises from 1.8 to 3.18.

First: CN(c1ncccc1CNc1nc(Nc2ccc3c(c2)CC(=O)N3)ncc1C(F)(F)F)S(C)(=O)=O [PF-00562271]
Second: CC(C)Cn1c(=O)n(C)c(=O)c2c(C(=O)N3CCCC3)c(Cc3ccccc3C(F)(F)F)sc21
The logD of the first is lower: 2.63 for the first, 3.8 for the second.

First: COc1cccc(C(COCc2cc(C(F)(F)F)cc(C(F)(F)F)c2)N2CCNCC2)c1 (stereo not given)
Second: CC(C)n1c(=O)n(C)c(=O)c2c(C(=O)N3CCS(=O)(=O)C3)c(Cc3ccccc3C(F)(F)F)sc21
The logD of the first is higher: 3.1 for the first, 2.55 for the second.

Going from `N#Cc1ccc(-c2csc(Nc3ccc(O)cc3)n2)cc1` to `CN1CCN(c2nc(NCCNc3ccc([N+](=O)[O-])cc3)c3ccccc3n2)CC1`, the logD falls from 4.1 to 2.91.

`Cn1cncc1-c1c2c(=O)n(CC#CCO)c(=O)n(CC3CC3)c2nn1Cc1ccnc2ccc(Cl)cc12` and `CCN1CCO[C@@H](CN2CCN(C(=O)Nc3ccc(Cl)c(Cl)c3)CC2)C1` are within 0.2 log units of each other in logD: 2.55 for the first, 2.68 for the second.

Compared with `Cc1ccc(/C=C(\C#N)C(N)=O)cc1`, `Cc1[nH]c2ccccc2c1CCNCc1ccc(/C=C/C(=O)NO)cc1` [PANOBINOSTAT] is lower in logD: 2.09 for the first, 1.1 for the second.

With `O=c1[nH]c2c(O)ccc([C@@H](O)CNCCCSCCOCCc3ccccc3)c2s1` the logD was 2.3.
